For data set [1], the system named is Human immunodeficiency virus 1. Nature of the data set: Antiviral activity against HIV1 3B replication in human H9 cells up to 100 ug/mL after 3 days by p24 antigen capture assay. Type of data set: functional, organism-based.
The test system of data set [2] is Human immunodeficiency virus 1. Nature of the data set: Antiviral activity against HIV1 3B replication in human H9 cells after 3 days by p24 antigen capture assay. It is filed as functional, organism-based. The settings on record: Human immunodeficiency virus 1, 3B, H9, 72 h.
Data set [3] is described as follows: Therapeutic index, ratio of inhibition of human H9 cells to EC50 for HIV1 3B. Type of data set: cell-based.

Converted amounts (≈) assume the structure as drawn. The source made the active and inactive calls. No cut-off for these calls is given here.

Consider 13 compounds from ChEMBL document CHEMBL1158287, “Identification of ent-16 beta, 17-dihydroxykauran-19-oic acid as an anti-HIV principle and isolation of the new diterpenoids annosquamosins A and B from Annona squamosa” (J Nat Prod, 1996).

On to `C[C@@]12CCC[C@@](C)(C(=O)O)[C@H]1CC[C@@]13C[C@H](CC[C@H]12)[C@@](O)(CO)C3`, for which the result in data set [1] was inactive.

Consider `C[C@@]12CCC[C@@](C)(O)[C@H]1CC[C@@]13C[C@H](CC[C@H]12)[C@H](C(=O)O)C3`, for which the outcome in data set [1] was inactive.

With `C=C1C[C@@]23CC[C@H]4[C@@](C)(CCC[C@@]4(C)C(=O)O)[C@@H]2CC[C@@H]1C3`, in data set [1], the result was inactive.

On to `CC(=O)OC[C@@H]1C[C@@]23CC[C@H]4[C@@](C)(CCC[C@@]4(C)C(=O)O)[C@@H]2CC[C@H]1C3`, for which the outcome in data set [1] was inactive.

In the case of `C[C@@]12CCC[C@@](C)(C=O)[C@H]1CC[C@@]13C[C@@H](CC[C@H]12)[C@](O)(CO)C3`, in data set [1], the outcome was inactive.

`C[C@@]12CCC[C@@](C)(C=O)[C@H]1CC[C@]13C[C@@H](CO)[C@@H](CC[C@H]12)C3`: the outcome in data set [1] was inactive.

Regarding `CC(=O)OC[C@]1(O)C[C@@]23CC[C@H]4[C@@](C)(CCC[C@@]4(C)C=O)[C@@H]2CC[C@H]1C3`, in data set [1], the result was inactive.

Regarding `C=C1C[C@@]23CC[C@@H]4[C@](C)(CO)CCC[C@@]4(C)[C@@H]2CC[C@H]1C3`, the outcome in data set [1] was inactive.

As for `C[C@@]12CCC[C@@](C)(C=O)[C@H]1CC[C@@]13C[C@H](CC[C@H]12)[C@H](C(=O)O)C3`, the outcome in data set [1] was inactive.

As for `C[C@@]12CCC[C@@](C)(O)[C@H]1CC[C@@]13C[C@H](CC[C@H]12)[C@](O)(CO)C3`, in data set [1], the result was inactive.

In data set [2], `C[C@@]12CCC[C@@](C)(C(=O)O)[C@H]1CC[C@@]13C[C@@H](CC[C@H]12)[C@](O)(CO)C3` gave a 50% effective concentration (EC50) of 0.8 µg/mL (≈ 2.38 µM). The selectivity ratio in data set [3] is greater than 5.

For `C[C@@]1(CO)CCC[C@]2(C)[C@@H]1CC[C@@]13C[C@H](CC[C@H]12)[C@](O)(CO)C3`, the outcome in data set [1] was inactive.

On to `C[C@@]12CCC[C@@](C)(C(=O)O)[C@H]1CC[C@]13CC(CO)[C@@H](CC[C@H]12)C3` (mixture of isomers), for which the result in data set [1] was inactive.

In general, EC50 refers to the concentration at which the effect is half-maximal.
